# Experimental data published in patent publication US10376584B2, “Stable pharmaceutical formulations of methylnaltrexone” (Progenics Pharmaceuticals, Inc., priority 2003, dated 2019).
# Assay: Autoclaving of methylnaltrexone solutions (122° C., 15 lbs. pressure for 20 min), degradation products
# Type: physicochemical
# Method: Applicants have discovered that during the autoclaving process, methylnaltrexone in aqueous solution tends to degrade to a surprising extent. The amount of degradation resulting from simple autoclaving (122° C., 15 lbs. pressure for 20 min.) can be as high as […]. The degradation products are depicted in FIG. 1, and appear to include at least two predominant degradants having relative retention times (RRT) of 0.72 (2.828 minutes) and 0.89 (3.435 minutes) and, with other minor forms as can be observed. The degradant identified by the 0.72 RRT peak appears in small amounts, 0.074, immediately upon dissolving the methylnaltrexone into solution and increases overtime with storage or autoclaving 0.25%. The degradant identified by the 0.89 RRT peak appears only after storage over time or after autoclaving (<0.05% and 0.724%, respectively). Applicants also have discovered that methylnaltrexone is unstable in aqueous solutions when stored at room temperature or even at 4° C. for significant (but commercially necessary) periods of time such as 6 months, 12 months or even two years. Degradation occurs without regard to whether the aqueous solution was previously autoclaved or filter sterilized. It would be desirable to stabilize formulations of methylnaltrexone such that following the autoclaving process or following storage (or both autoclaving and storage), the amount of the total degradation products would be less than 2.0%, 1.5%, 1.0%, 0.5%, 0.25%, and even 0.125%.
# The invention provides stable formulations of methylnaltrexone. By stable solutions of methylnaltrexone, it is meant that following autoclaving at 122° C., 15 lbs. pressure for 20 minutes, the methylnaltrexone degradation products resulting from such conditions are not more than 2% of the total methylnaltrexone present in a given solution. […]
smiles,measurement,setting,value
C[N@+]1(CC2CC2)CC[C@]23c4c5ccc(O)c4O[C@H]2C(=O)CC[C@@]3(O)[C@H]1C5 [methylnaltrexone],levels of degradation products after autoclaving with buffering agents,buffers in concentrations ranging from 0.25 mM to 25 mM,Acceptable levels of degradation products
same,stability to autoclaving by adjustment of pH alone,pH between 4.25 and 6,not sufficient to produce stable formulations
same,pH of the autoclaved sample,"pH set between 3.0 and 6.0 with pH-adjusting acid or base prior to autoclaving, no buffer",about 7.0
